pIC50: −log10 of the molar value.
Experiments:
in vitro = conditions: human
[1] = tested on: THP-1 human monocytic cell line; assay: Cytotoxicity, THP-1 cell viability (CellTiter-Glo); conditions: read-out: Cytotoxicity IC50; THP-1 cells, 50% loss in viability, 3 days
[2] = tested on: THP-1 cell line infected with Mtb; assay: Intracellular activity assay, luminescence; type: cell-based, Mycobacterium tuberculosis; conditions: Mtb-infected THP-1 cells, 72 h
Description: Since the overall efficacy of any anti TB drug will be improved by its ability to traffic into the macrophage phagosome containing replicating bacteria, we evaluated the intracellular activity of compounds[24]. This was measured by using THP-1 cell line infected with Mtb. Infected cells were exposed to compounds for 72 h and viable bacterial counts were measured using luminescence as a measure of intracellular growth.
Assay (Promega) which uses ATP as an indicator of cell viability. Relative luminescent units (RLU) were measured using a Biotek Synergy 4 plate reader. The dose response curve was fitted using the Levenberg–Marquardt algorithm. The IC50 was defined as the compound […]
Intracellular Activity Assay
The activity of compounds against intracellular bacteria was determined by measuring viability in infected THP-1 cell after 3 days in the presence of test compounds. Compounds were prepared as 10-point three-fold serial dilutions in DMSO. The highest concentration of […]
THP-1 cells were cultured in complete RPMI and differentiated into macrophage-like cells using 80 nM PMA overnight at 37°C, 5% CO2. THP-1 cells were infected with a luminescent strain of H37Rv (which constitutively expresses luxABCDE) at a multiplicity of infection of 1 and incubated overnight at 37°C, 5% CO2. Infected cells were recovered using Accutase/EDTA solution, washed twice with PBS to remove extracellular bacteria and seeded into assay pates. Compound dilutions were added to a final DMSO concentration of 0.5%.
Assay plates were incubated for 72 h at 37°C, 5% CO2. Each run included isoniazid as a control. Relative luminescent units (RLU) were measured using a Biotek Synergy 2 plate reader. The dose response curve was fitted using the Levenberg–Marquardt algorithm. The […]
inhibition of growth respectively.
3. Cycle 3 – Absorption, distribution, metabolism, excretion and toxicity (ADMET)
3.1. Plasma Protein Binding Assay
Compounds were added to human plasma at a fixed concentration of 5 µM. The mixture was dialyzed in a RED device (Rapid Equilibrium Dialysis, Pierce) against PBS and incubated on an orbital shaker for 4 h at 37 °C. Aliquots from plasma and PBS sides were collected; an equal volume of PBS was added to the plasma sample, and an equal volume of plasma was added to the PBS sample. Three volumes of methanol (containing the internal binding standard propranolol) was added to precipitate the proteins and release the compound.
Each compound was tested in duplicate. Samples were centrifuged, the supernatant was […]

Mtb H37Rv = assay: LORA parallel plates, oxygen-deprived bacteria incubated under aerobic conditions (normal oxygen); type: cell-based, Mycobacterium tuberculosis
Mycobacterium avium = assay: MIC against nontuberculous mycobacteria (Alamar blue); type: cell-based; conditions: M. avium
[3] = tested on: Mycobacterium tuberculosis H37Rv; assay: Primary screen (Cycle 1): MIC, IC50, IC90 under aerobic conditions; type: cell-based
Mycobacterium abscessus = assay: MIC, IC50, IC90 against nontuberculous mycobacteria (OD590); type: cell-based; conditions: M. abscessus
M. tuberculosis H37Rv = assay: Cycle 2 repeat of MIC, IC50, IC90 under aerobic conditions (lower starting concentrations); type: cell-based, Mycobacterium tuberculosis; conditions: revaluation
[4] = M. tuberculosis H37Rv, aerobic conditions, primary screen

| Compound | recovery at 4 h, 5 µM (in vitro) [%] | pIC50 [1] | pIC50 ([2]; read-out: IC50 intracell) | IC90 ([2]; read-out: IC90 intracell) [µM] | pIC50 (Mtb H37Rv) | IC90 (Mtb H37Rv) [µM] | MIC (Mtb H37Rv; oxygen-deprived bacteria, aerobic 5 d) [µM] | MIC (Mycobacterium avium) [µM] | pIC50 [3, 4] | IC90 [3, 4] [µM] | MIC [3, 4] [µM] | MIC ([3]; MIC value taken from the first MIC assay) [µM] | pIC50 (Mycobacterium abscessus) | IC90 (Mycobacterium abscessus) [µM] | pIC50 (M. tuberculosis H37Rv; aerobic) | IC90 (M. tuberculosis H37Rv; aerobic) [µM] | MIC (M. tuberculosis H37Rv; repeated at lower starting concentrations, read-out: MIC aerobic condition) [µM] |
| --- | --- | --- | --- | --- | --- | --- | --- | --- | --- | --- | --- | --- | --- | --- | --- | --- | --- |
| CC(=O)CC(c1ccccc1)c1c(O)c2ccccc2oc1=O (centres unmarked) [Warfarin] | 96.7 |  |  |  |  |  |  |  |  |  |  |  |  |  |  |  |  |
| 4-[3-(4-Chlorophenyl)-1-(ethoxycarbonyl)indolizine-7-yl)-1-(2-(4-methoxyphenyl)-2-oxoethyl)pyridine-1-ium bromide [Compound 6c] |  | 5.39 | 5.15 | 34 | 5.09 | 23 | 75 | 50 | 4.92 | 14 | 15 | 15 | 4.80 | 21 | 5.17 | 9.5 | 9.5 |

Reference: PMC6021032, “Antimycobacterial activity of nitrogen heterocycles derivatives: 7-(pyridine-4-yl)-indolizine derivatives. Part VII^8–12” (Journal of Enzyme Inhibition and Medicinal Chemistry, 2017)
